We go through 14 compounds from patent US7491794B2, “Macrocyclic compounds as inhibitors of viral replication” (Intermune, Inc., priority 2003, dated 2009).

In general, IC50 refers to the point on the concentration scale where inhibition reaches its midpoint.

For the assay, the target named is T1, NS3-NS4A protease (Hepatitis C virus genotype 1a, UniProt P27958).
T1 construct: Recombinant E. coli or Baculovirus full-length NS3 was diluted to 3.33 μM with assay buffer; made in house; host or cells: E. coli or baculovirus (BV) system
T1 sequence (P27958 1027-1657): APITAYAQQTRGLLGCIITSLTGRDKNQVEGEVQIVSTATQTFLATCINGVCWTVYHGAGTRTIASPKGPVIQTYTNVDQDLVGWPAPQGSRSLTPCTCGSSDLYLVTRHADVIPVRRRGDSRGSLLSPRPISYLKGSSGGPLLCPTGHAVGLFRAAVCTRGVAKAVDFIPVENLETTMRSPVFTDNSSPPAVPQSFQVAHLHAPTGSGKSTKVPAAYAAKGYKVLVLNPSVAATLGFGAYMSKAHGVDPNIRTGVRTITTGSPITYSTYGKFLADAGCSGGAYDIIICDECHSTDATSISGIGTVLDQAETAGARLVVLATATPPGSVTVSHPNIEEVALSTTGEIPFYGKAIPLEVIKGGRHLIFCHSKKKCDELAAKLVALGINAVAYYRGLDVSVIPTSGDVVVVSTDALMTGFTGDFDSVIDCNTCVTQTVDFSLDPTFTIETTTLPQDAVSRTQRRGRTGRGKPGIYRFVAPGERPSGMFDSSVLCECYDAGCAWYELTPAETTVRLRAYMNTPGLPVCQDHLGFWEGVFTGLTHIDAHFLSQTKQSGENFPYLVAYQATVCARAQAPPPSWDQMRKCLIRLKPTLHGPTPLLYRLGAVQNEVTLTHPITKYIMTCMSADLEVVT
The assay can be described thus: NS3-NS4A protease assay (NS3 inhibition assay, RETS1 substrate), Section B. It is filed as biochemical. The following applies: read-out: NS3-NS4A IC50. The method, then:
NS3 complex formation with NS4A-2
Recombinant E. coli or Baculovirus full-length NS3 was diluted to 3.33 μM with assay buffer and the material transferred to an eppendorf tube and place in water bath in 4° C. refrigerator. The appropriate amount of NS4A-2 to 8.3 mM in assay buffer was added to equal the volume of NS3 in step 2.1.1 (conversion factor −3.8 mg/272 μL assay buffer). The material was transferred to an eppendorf tube and placed in a water bath in a 4° C. refrigerator.
After equilibration to 4° C., equal volumes of NS3 and NS4A-2 solutions were combined in an eppendorf tube, mixed gently with a manual pipettor, and the mixture incubated for 15 minutes in the 4° C. water bath. Final concentrations in the mixture were 1.67 μM NS3, 4.15 mM NS4A-2 (2485-fold molar excess NS4A-2).
After 15 minutes at 4° C., the NS3/NS4A-2 eppendorf tube was removed and placed in a room temperature water bath for 10 minutes. NS3/NS4A-2 was aliquoted at appropriate volumes and store at −80° C. (E. coli NS3 run at 2 nM in assay, aliquot at 25 μL. BV NS3 run at 3 nM in assay, aliquot at 30 μL.
Step 2.2.5. Sample compounds were dissolved to 10 mM in DMSO then diluted to 2.5 mM (1:4) in DMSO.
Step 2.2.6. The E. coli NS3/NS4A-2 was diluted to 4 nM NS3 (1:417.5 of 1.67 μM stock−18 μL 1.67 μM stock+7497 μL assay buffer).
The BV NS3/NS4A-2 was diluted to 6 nM NS3 (1:278.3 of 1.67 μM stock−24 μL 1.67 μM stock+6655 μL assay buffer).
Step 2.2.7. Using the manual multichannel pipettor, and being careful not to introduce bubbles into the plate, 50 μL assay buffer was added to wells A01-H01 of a black Costar 96-well polypropylene storage plate.
Step 2.2.8. Using the manual multichannel pipettor, and being careful not to introduce bubbles into the plate, 50 μL of diluted NS3/NS4A-2 from step 2.2.6 was added to wells A02-H12 of plate in step 2.2.7.
Step 2.2.9. Using the manual multichannel pipettor, and being careful not to introduce bubbles into the plate, 25 μL of the wells in drug dilution plate in step 2.2.5 were transferred to corresponding wells in assay plate in step 2.2.8. The tips on multichannel pipettor were changed for each row of compounds transferred.
Step 2.2.10. Using the manual multichannel pipettor, and being careful not to introduce bubbles into the plate, the wells from the assay plate in step 2.2.9 were mixed by aspirating and dispensing 35 μL of the 75 μL in each well five times. The tips on multichannel pipettor were changed for each row of wells mixed.
Step 2.2.11. The plate was covered with a polystyrene plate lid, and the plate from step 2.2.10 containing NS3 protease and sample compounds was pre-incubated 10 minutes at room temperature.
While the plate from step 2.2.11 was pre-incubating, the RETS1 substrate was diluted in a 15 mL polypropylene centrifuge tube. The RETS1 substrate was diluted to 8 μM (1:80.75 of 646 μM stock−65 μL 646 μM stock+5184 μL assay buffer).
After the plate in step 2.2.11 was done pre-incubating, and using the manual multichannel, 25 μL of substrate was added to all wells on the plate. The contents of the wells were quickly mixed, as in step 2.2.10, but mixing 65 μL of the 100 μL in the wells.
The plate was read in kinetic mode on the Molecular Devices SpectraMax Gemini XS plate reader. Reader settings: Read time: 30 minutes, Interval: 36 seconds, Reads: 51, Excitation λ: 335 nm, Emission λ: 495 nm, cutoff: 475 nm, Automix: off, Calibrate: once, PMT: high, Reads/well: 6, Vmax pts: 21 or 28/51 depending on length of linearity of reaction.
IC50s were determined using a four parameter curve fit equation, and converted to Ki's using the following Km's:
where Ki=IC50/(1+[S]/Km))
As for `O=C(N[C@H]1CCCCC/C=C\[C@@H]2C[C@@]2(C(=O)O)NC(=O)[C@@H]2C[C@@H](OC(=O)N3CCc4ccccc4C3)CN2C1=O)OC1CCCC1` [AR00247310, (1S,4R,6S,14S,18R)-14-Cyclopentyloxycarbonylamino-18-(3,4-dihydro-1H-isoquinoline-2-carbonyloxy)-2,15-dioxo-3,16-diaza-tricyclo[14.3.0.0^4,6]nonadec-7-ene-4-carboxylic acid], the IC50 is below 1 µM.

Regarding `CC(C)(C)OC(=O)N[C@H]1CCCCC/C=C\[C@@H]2C[C@@]2(C(=O)O)NC(=O)[C@@H]2C[C@@H](NC(=O)N3CCCc4ccccc43)CN2C1=O` [AR00304160, (1S,4R,6S,14S,18R)-14-tert-Butoxycarbonylamino-18-[(3,4-dihydro-2H-quinoline-1-carbonyl)-amino]-2,15-dioxo-3,16-diaza-tricyclo[14.3.0.0^4,6]nonadec-7-ene-4-carboxylic acid], the IC50 is below 50 µM.

As to `CC(C)(C)OC(=O)N[C@H]1CCCCC/C=C\[C@@H]2C[C@@]2(C(=O)O)NC(=O)[C@@H]2C[C@@H](OC(=O)N3CCc4c([nH]c5ccccc45)C3)CN2C1=O` [AR00226825, (1S,4R,6S,14S,18R)-14-tert-Butoxycarbonylamino-2,15-dioxo-18-(1,3,4,9-tetrahydro-b-carboline-2-carbonyloxy)-3,16-diaza-tricyclo[14.3.0.0^4,6]nonadec-7-ene-4-carboxylic acid], the IC50 was below 10 µM.

In the case of `CC(C)(C)OC(=O)N[C@H]1CCCCC/C=C\[C@@H]2C[C@@]2(C(=O)O)NC(=O)[C@@H]2C[C@@H](OC(=O)N3CCc4ccc(Cl)cc4C3)CN2C1=O` [AR00304062, (1S,4R,6S,14S,18R)-14-tert-Butoxycarbonylamino-18-(7-chloro-3,4-dihydro-1H-isoquinoline-2-carbonyloxy)-2,15-dioxo-3,16-diaza-tricyclo[14.3.0.0^4,6]nonadec-7-ene-4-carboxylic acid], the IC50 is below 10 µM.

With `COc1ccc2c(c1)CCN(C(=O)O[C@@H]1C[C@H]3C(=O)N[C@]4(C(=O)O)C[C@H]4/C=C\CCCCC[C@H](NC(=O)OC(C)(C)C)C(=O)N3C1)C2CN1CCOCC1` (stereo partly drawn) [AR00333276, (1S,4R,6S,14S,18R)-14-tert-Butoxycarbonylamino-18-(6-methoxy-1-morpholin-4-ylmethyl-3,4-dihydro-1H-isoquinoline-2-carbonyloxy)-2,15-dioxo-3,16-diaza-tricyclo[14.3.0.0^4,6]nonadec-7-ene-4-carboxylic acid], the IC50 is below 10 µM.

On to `CC(C)(C)OC(=O)N[C@H]1CCCCC/C=C\[C@@H]2C[C@@]2(C(=O)O)NC(=O)[C@@H]2C[C@@H](OC(=O)N3CCc4ccccc4C3CN3CCOCC3)CN2C1=O` (stereo partly drawn) [AR00333225, (1S,4R,6S,14S,18R)-14-tert-Butoxycarbonylamino-18-(1-morpholin-4-ylmethyl-3,4-dihydro-1H-isoquinoline-2-carbonyloxy)-2,15-dioxo-3,16-diaza-tricyclo[14.3.0.0^4,6]nonadec-7-ene-4-carboxylic acid], for which the IC50 was below 10 µM.

For `COc1ccc2c(c1)CCN(C(=O)O[C@@H]1C[C@H]3C(=O)N[C@]4(C(=O)O)C[C@H]4/C=C\CCCCC[C@H](NC(=O)OC(C)(C)C)C(=O)N3C1)C2CN(C)C` (stereo partly drawn) [AR00333277, (1S,4R,6S,14S,18R)-14-tert-Butoxycarbonylamino-18-(1-dimethylaminomethyl-6-methoxy-3,4-dihydro-1H-isoquinoline-2-carbonyloxy)-2,15-dioxo-3,16-diaza-tricyclo[14.3.0.0^4,6]nonadec-7-ene-4-carboxylic acid], the IC50 was below 10 µM.

For the compound `CC(C)(C)OC(=O)N[C@H]1CCCCC/C=C\[C@@H]2C[C@@]2(C(=O)O)NC(=O)[C@@H]2C[C@@H](NC(=O)N3CCc4ccccc4C3)CN2C1=O` [AR00287262, (1S,4R,6S,14S,18R)-14-tert-butoxycarbonylamino-18-[(3,4-dihydro-1H-isoquinoline-2-carbonyl)-amino]-2,15-dioxo-3,16-diaza-tricyclo[14.3.0.0^4,6]nonadec-7-ene-4-carboxylic acid], the IC50 was below 10 µM.

`CC(C)(C)OC(=O)N[C@H]1CCCCC/C=C\[C@@H]2C[C@@]2(C(=O)O)NC(=O)[C@@H]2C[C@@H](OC(=O)N3CCc4ncncc4C3)CN2C1=O` [AR00304183, (1S,4R,6S,14S,18R)-14-tert-Butoxycarbonylamino-18-(7,8-dihydro-5H-pyrido[4,3-d]pyrimidine-6-carbonyloxy)-2,15-dioxo-3,16-diaza-tricyclo[14.3.0.0^4,6]nonadec-7-ene-4-carboxylic acid]: the IC50 was below 50 µM.

`CC(C)(C)OC(=O)N[C@H]1CCCCC/C=C\[C@@H]2C[C@@]2(C(=O)NS(=O)(=O)c2cc(C(=O)O)ccc2Cl)NC(=O)[C@@H]2C[C@@H](OC(=O)N3Cc4ccccc4C3)CN2C1=O` [AR00365388, (1S,4R,6S,14S,18R)-1,3-Dihydro-isoindole-2-carboxylic acid 14-tert-butoxycarbonylamino-4-(5-carboxy-2-chloro-benzenesulfonylaminocarbonyl)-2,15-dioxo-3,16-diaza-tricyclo[14.3.0.0^4,6]nonadec-7-en-18-yl ester]: the half-inhibitory concentration (IC50) was below 0.1 µM.

Turning to `COc1ccc(S(=O)(=O)NC(=O)[C@@]23C[C@H]2/C=C\CCCCC[C@H](NC(=O)OC(C)(C)C)C(=O)N2C[C@H](OC(=O)N4Cc5ccccc5C4)C[C@H]2C(=O)N3)cc1C(=O)O` [AR00365425, (1S,4R,6S,14S,18R)-1,3-Dihydro-isoindole-2-carboxylic acid 14-tert-butoxycarbonylamino-4-(3-carboxy-4-methoxy-benzenesulfonylaminocarbonyl)-2,15-dioxo-3,16-diaza-tricyclo[14.3.0.0^4,6]nonadec-7-en-18-yl ester], the IC50 was below 0.1 µM.

As for `O=C(N[C@H]1CCCCC/C=C\[C@@H]2C[C@@]2(C(=O)O)NC(=O)[C@@H]2C[C@@H](OC(=O)N3Cc4cc(Cl)c(Cl)cc4C3)CN2C1=O)O[C@@H]1CCOC1` [AR00320445, (1S,4R,6S,14S,18R)-18-(5,6-Dichloro-1,3-dihydro-isoindole-2-carbonyloxy)-2,15-dioxo-14-(tetrahydro-furan-3R-yloxycarbonylamino)-3,16-diaza-tricyclo[14.3.0.0^4,6]nonadec-7-ene-4-carboxylic acid], the IC50 is below 10 µM.

Regarding `CN(C)CCOc1ccc2c(c1)CN(C(=O)O[C@@H]1C[C@H]3C(=O)N[C@]4(C(=O)O)C[C@H]4/C=C\CCCCC[C@H](NC(=O)OC(C)(C)C)C(=O)N3C1)C2` [AR00371947, (1S,4R,6S,14S,18R)-14-tert-Butoxycarbonylamino-18-[5-(2-dimethylamino-ethoxy)-1,3-dihydro-isoindole-2-carbonyloxy]-2,15-dioxo-3,16-diaza-tricyclo[14.3.0.0^4,6]nonadec-7-ene-4-carboxylic acid], the IC50 was below 1 µM.

As for `Cc1nc2c(s1)CN(C(=O)O[C@@H]1C[C@H]3C(=O)N[C@]4(C(=O)O)C[C@H]4/C=C\CCCCC[C@H](NC(=O)OC(C)(C)C)C(=O)N3C1)CC2` [AR00304158, (1S,4R,6S,14S,18R)-14-tert-Butoxycarbonylamino-18-(2-methyl-6,7-dihydro-4H-thiazolo[5,4-c]pyridine-5-carbonyloxy)-2,15-dioxo-3,16-diaza-tricyclo[14.3.0.0^4,6]nonadec-7-ene-4-carboxylic acid], the IC50 was below 50 µM.
